# Measured values published in US12559461B2, “Antibiotic adjuvant compounds” (UNIVERSITY OF NOTRE DAME DU LAC, priority 2020, dated 2026).
# Tests used:
# AB5075 [1] = assay: Broth microdilution MIC of compound alone (standalone toxicity); type: cell-based, Acinetobacter baumannii
# Method: (§1) Bacterial Strains and Antimicrobial Agents. Acinetobacter baumannii clinical isolate 5075 was obtained from Dr. Colin Manoil at the University of Washington. Colonies were grown on lysogeny broth (LB) agar. Cation-adjusted Mueller-Hinton Broth (CAMHB) (catalog number 212322) were purchased from BD Diagnostics. LB broth was purchased from Fisher Scientific (catalog number BP9722-2). […] Colistin sulfate salt (catalog number C4461) was purchased from Sigma Aldrich. All assays were completed in duplicate and repeated at least two separate times. All compounds were dissolved as their HCl salts in molecular biology grade DMSO as 10 or 100 mM stock solutions and stored at −20° C. Colistin was dissolved in sterile water while clarithromycin was dissolved in molecular biology grade DMSO.
# Broth microdilution method for MIC determination. Day cultures (6 h) of each bacterial strain in cation adjusted Mueller Hinton II broth (CAMHB, Fisher Scientific U.S.) were subcultured to 5×10^5 CFU/mL in CAMHB. Aliquots (1 mL) were placed in culture tubes and compound was added from 10 mM stock samples in DMSO, such that compound concentration equaled highest concentration tested (200 μM). Samples were then aliquoted (200 μL) into the first wells of a 96-well plate, with all remaining wells being filled with 100 μL of initial bacterial subculture. Row one wells were mixed five times, before 100 μL was transferred to row two. Row two was then mixed five times, and 100 μL was transferred to row three. This process was repeated until the final row had been mixed; this served to serially dilute the compound. Plates were then covered with GLAD Press n'Seal and incubated under stationary conditions at 37° C. for 16 h. MIC values were then recorded as the lowest concentration at which no bacterial growth was observed.
# AB5075 [2] = assay: Broth microdilution clarithromycin (CLR) potentiation and dose-response of adjuvant; type: cell-based, Acinetobacter baumannii
# Method: as §1
# Broth microdilution method for antibiotic potentiation. Day cultures (6 h) of bacteria in CAMHB were subcultured to 5×10^5 CFU/mL in CAMHB. Aliquots (4 mL) were placed in culture tubes and dosed with compound from 10 mM stock samples to give the desired concentration of the compound to be tested against the particular bacterial strain; this insured non-toxic DMSO concentrations ≤0.3% in each well. 1 mL of the resulting solution was placed in a separate culture and dosed with antibiotic at the highest concentration to be tested. Bacteria treated with antibiotic alone served as the control. Row one of a 96-well plate was filled with 200 μL of the antibiotic/2-AI solution, and rows 2-12 were filled with 100 μL each of the remaining 4 mL of bacterial subculture containing adjuvant at the desired concentration, except for the control lane which contained only bacterial subculture. Row one was then mixed five times, and 100 μL was transferred to row two, which was then mixed five times before being transferred to row three. This process was repeated until all rows had been mixed, except for row twelve which would have only 2-AI to serve as a control to monitor potential toxicity. The 96-well plate was then covered in Glad Press n'Seal and incubated under stationary conditions at 37° C. for 16 h. MIC values were determined as the lowest concentration at which no bacterial growth was observed, and fold reductions were determined by comparison to antibiotic control lane.
# Dose-response of Adjuvant Assay. The procedure for ‘broth microdilution method for antibiotic potentiation’ was followed using 4 mL aliquots of adjuvant at various concentrations: 0, 5, 7.5, 10, 15, 20, 25, and 30 μM.
Structure (SMILES),MIC (AB5075 [1]; Acinetobacter baumannii),CLR MIC (AB5075 [2]; compound tested at 10 μM),CLR MIC (AB5075 [2]; compound tested at 20 μM),Fold Reduction of CLR MIC (AB5075 [2]; compound tested at 20 μM),CLR MIC (AB5075 [2]; compound tested at 30 μM),Fold Reduction of CLR MIC (AB5075 [2]; compound tested at 30 μM),MIC (AB5075 [1]; hydrochloride),Fold Reduction of CLR MIC (AB5075 [2]; compound tested at 10 μM),CLR MIC (AB5075 [2]; compound tested at 7.5 μM),CLR MIC (AB5075 [2]; compound tested at 15 μM),Fold Reduction of CLR MIC (AB5075 [2]; compound tested at 15 μM),Fold Reduction of CLR MIC (AB5075 [2]; compound tested at 7.5 μM),CLR MIC (AB5075 [2]; compound tested at 5 μM),Fold Reduction of CLR MIC (AB5075 [2]; compound tested at 5 μM),CLR MIC (AB5075 [2]; compound dosed at higher concentrations (≥20 μM))
"Cl.Nc1nc(-c2ccc(NC(=O)c3cc(Cl)cc(Cl)c3)cc2Cl)c[nH]1 [Compound 10e, N-(4-(2-amino-1H-imidazol-4-yl)-3-chlorophenyl)-3,5-dichlorobenzamide hydrochloride]",> 200 µM,8 µg/mL,0.5 µg/mL,64 fold,0.5 µg/mL,64 fold,–,–,–,–,–,–,–,–,–
"Cl.Nc1nc(-c2ccc(NC(=O)c3cc(Br)cc(Br)c3)cc2F)c[nH]1 [Compound 15a, N-(4-(2-amino-1H-imidazol-4-yl)-3-fluorophenyl)-3,5-dibromobenzamide hydrochloride]",> 200 µM,16 µg/mL,8 µg/mL,4 fold,2 µg/mL,16 fold,>200 µM,2 fold,–,–,–,–,–,–,–
"Cl.Nc1nc(-c2ccc(NC(=O)c3ccc(C(F)(F)F)c(Cl)c3)cc2F)c[nH]1 [Compound 17a, N-(4-(2-amino-1H-imidazol-4-yl)-3-fluorophenyl)-3-chloro-4-(trifluoromethyl)benzamide hydrochloride]",50 µM,8 µg/mL,–,–,–,–,–,4 fold,16 µg/mL,0.25 µg/mL,128 fold,–,–,–,–
"Cl.Nc1nc(-c2ccc(NC(=O)c3ccc(Cl)c(C(F)(F)F)c3)cc2F)c[nH]1 [Compound 17b, N-(4-(2-amino-1H-imidazol-4-yl)-3-fluorophenyl)-4-chloro-3-(trifluoromethyl)benzamide hydrochloride]",50 µM,2 µg/mL,–,–,–,–,–,16 fold,8 µg/mL,0.25 µg/mL,128 fold,4 fold,–,–,–
"Cl.Nc1nc(-c2ccc(NC(=O)Nc3cc(Cl)cc(Cl)c3)cc2)c[nH]1 [Compound 20b, 1-(4-(2-amino-1H-imidazol-4-yl)phenyl)-3-(3,5-dichlorophenyl)urea hydrochloride]",25 µM,–,–,–,–,–,–,–,0.5 µg/mL,–,–,64 fold,8 µg/mL,4 fold,–
"Cl.Nc1nc(-c2ccc(NC(=O)Nc3ccc(Cl)c(Cl)c3)cc2)c[nH]1 [Compound 20c, 1-(4-(2-amino-1H-imidazol-4-yl)phenyl)-3-(3,4-dichlorophenyl)urea hydrochloride]",100 µM,0.25 µg/mL,≤0.0625 µg/mL,≥512 fold,–,–,–,128 fold,2 µg/mL,–,–,16 fold,8 µg/mL,4 fold,≤ 0.0625 µg/mL
